A short description of this data set: Single dose oral pharmacokinetic studies in rabbits. As to conditions: male, New Zealand White, rabbit, plasma; for AUC(0-t): 25 mg/kg, 25 mg/kg b.w. oral single dose. Format: in vivo.

The source of these data is patent US12162850B2, “Formulations” (Betagenon AB, priority 2019, dated 2024).

The compound `O=C(Nc1nc(=O)n(Cc2ccc(Cl)cc2)s1)c1ccc(Cl)cc1.[Na]` [Compound 2, 4-chloro-N-[2-[(4-chlorophenyl)methyl]-3-oxo-1,2,4-thiadiazol-5-yl]benzamide sodium salt] registered an AUC(0-t) (enteric coated capsule with MgO, rabbit plasma (Example 9)) of 1700 ± 248 µg·h/mL and an AUC(0-t) (enteric coated capsule with mannitol, rabbit plasma (Example 10)) of 1470 ± 78.7 µg·h/mL. For the same compound, the Tmax (53 mg/kg, enteric coated capsule with MgO, 53 mg/kg b.w. (equivalent to 50 mg/kg Compound 1) oral single dose, rabbit plasma (Example 11)) is 48 ± 24 h.
